Measured values: patent US7537760B2, “Monoclonal antibodies recognizing BAG3 protein sequences and their use in diagnostic and therapy of cell death-involving diseases” (priority 2001, dated 2009)

Key:
[1] = system: cells of the human osteosarcoma line SAOS; assay: Apoptosis in SAOS cells, cell permeabilization and PI staining; type: cell-based; conditions: 72 h; for % of apoptosis, incubation Etoposide (5 microM) / % of apoptosis, incubation Topotecan (40 ng/ml): without or with oligo 5 microM
Experimental: Cells of the SAOS line were incubated for 72 h in 10% FCS-RPMI without or with chemotherapeutic compounds (etoposide or topotecan) and/or the BAG3 antisense or control nonsense phosphorothioate oligodeoxynucleotides (5 microM) described in the text. Then cell apoptosis was analysed by cell permeabilization and PI staining according to ref.11.

BAG3 = BAG3 mRNA (PCR) and protein (immunofluorescence) levels in primary B-CLL cells; type: cell-based, human
Experimental: FIG. 1—Expression of BAG3 mRNA and protein in primary cells from leukemia patients. Leukemic cells were isolated from B-CLL patients' peripheral blood specimens by centrifugation through Ficoll-Hypaque (13) and cultured for 24 hours in RPMI 1640 medium supplemented with 10% fetal calf serum (10% FCS-RPMI), without or with fludarabine phosphate. A panel: cell mRNA was the extracted and BAG3 expression was verified by PCR (GAPDH expression is shown for comparative purpose); B panel: cells were permeabilised and analysed by indirect immunofluorescence with the polyclonal antibody AC-BAG3-1. A=control rabbit Ig; b=cells incubated with control medium and analysed with anti-BAG3; c=cells incubated with fludarabine and analysed with anti-BAG3.
FIG. 2—Downmodulation of BAG3 protein levels by anti-BAG3 antisense oligodeoxynucleotides. Leukemic cells were isolated from B-CLL patients' peripheral blood specimens by centrifugation through Ficoll-Hypaque and cultured for 20 hours without (b) or with BAG3 antisense (b+α) or control nonsense (b+ν) phosphorothioate oligodeoxynucleotides (5 microM) described in the text. Then cells were permeabilised and analysed by indirect immunofluorescence with the polyclonal antibody AC-BAG3-1. a=control rabbit Ig.

BAG3 protein = biological target: T1, BAG3 protein (Homo sapiens, UniProt O95817); assay: BAG3 protein in ALL cells, Western blot and intracellular immunofluorescence; type: cell-based; conditions: oligo 5 microM, 24 hr
T1 construct: endogenous in cells; host or cells: primary leukemic cells from patients' peripheral blood (B-CLL, acute leukemia)
T1 sequence (O95817 whole entry): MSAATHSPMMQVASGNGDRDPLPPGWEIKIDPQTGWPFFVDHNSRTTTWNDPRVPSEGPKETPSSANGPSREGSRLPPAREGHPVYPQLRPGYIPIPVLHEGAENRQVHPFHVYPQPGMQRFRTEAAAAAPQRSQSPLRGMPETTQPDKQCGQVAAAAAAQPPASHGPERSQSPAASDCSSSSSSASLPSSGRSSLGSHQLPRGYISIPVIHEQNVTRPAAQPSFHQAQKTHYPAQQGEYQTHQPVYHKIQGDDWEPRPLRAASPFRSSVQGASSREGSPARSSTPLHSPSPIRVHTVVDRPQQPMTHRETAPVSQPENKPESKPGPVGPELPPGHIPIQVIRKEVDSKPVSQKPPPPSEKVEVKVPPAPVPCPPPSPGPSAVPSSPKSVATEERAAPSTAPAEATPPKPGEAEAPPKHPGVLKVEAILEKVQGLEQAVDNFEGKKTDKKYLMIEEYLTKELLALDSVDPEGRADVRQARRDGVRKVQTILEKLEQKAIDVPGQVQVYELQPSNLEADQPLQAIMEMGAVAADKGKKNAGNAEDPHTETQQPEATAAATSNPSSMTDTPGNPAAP
Experimental: FIG. 11 Expression of BAG3 protein in ALL cells and its downmodulation by BAG3-specific antisense oligonucleotides. A—ALL cells (1×10^6/ml) were cultured in 10% FCS-RPMI without or with control nonsense ([…], SEQ ID NO 12, nonsense 1) or BAG3-specific antisense ([…], SEQ ID NO 9, antisense 1) oligonucleotides (5 microM) for 24 hr. Then cell lysates were obtained and analyzed in Western blot with anti-BAG3 (AC-BAG3-1; analogous results were obtained With AC-BAG3-2) or anti-tubulin antibodies. B—ALL cells (1×10^6/ml) were cultured in 10% FCS-RPMI without or with BAG3-specific antisense ([…], SEQ ID NO 9, antisense 1) (a) or control nonsense ([…], SEQ ID NO 12, nonsense 1) (b) oligonucleotides (5 microM) for 24 hr. Then the cells were analyzed by intracellular immunofluorescence with the anti-BAG3 polyclonal antibody. Negative controls with a control rabbit antibody preparation are shown on the left in a and b.

Row | Compound | % of apoptosis, incubation Etoposide (5 microM) [1] | % of apoptosis, incubation Topotecan (40 ng/ml) [1] | other results
1 | COc1cc([C@@H]2c3cc4c(cc3[C@@H](O[C@@H]3O[C@@H]5CO[C@@H](C)O[C@H]5[C@H](O)[C@H]3O)[C@H]3COC(=O)[C@H]23)OCO4)cc(OC)c1O [Etoposide, etoposide] | 38.32% | – | –
2 | CC[C@@]1(O)C(=O)OCc2c1cc1n(c2=O)Cc2cc3c(CN(C)C)c(O)ccc3nc2-1 [Topotecan, topotecan] | – | 36.84% | –
3 | Nc1nc(F)nc2c1ncn2[C@@H]1O[C@H](COP(=O)(O)O)[C@@H](O)[C@@H]1O [fludarabine, fludarabine phosphate] | – | – | BAG3 mRNA levels (BAG3; 24 hours, PCR): enhanced; BAG3 protein levels (BAG3; immunofluorescence, 11 of 13 BAG3-positive specimens (18 examined)): upregulated
4 | antisense 1: BAG3 antisense phosphorothioate oligodeoxynucleotide TGCATCATGGGCGAGTGGGTGGCGG (antisense TGCATCATGGGCGAGTGGGTGGCGG; DNA, all phosphorothioate, methylation of C not given here; listed as Homo sapiens) | – | – | BAG3 protein in ALL cells (BAG3 protein): downmodulation
5 | control nonsense: control nonsense phosphorothioate oligodeoxynucleotides described in the text; which of nonsense 1-3 is not stated (DNA TTATATTCTATTATATTTATGAACTCC; DNA, all phosphorothioate, methylation of C not given here; listed as Homo sapiens) | 45.40% | 41.60% | % of apoptosis, incubation control medium ([1]; oligo 5 microM, no chemotherapeutic compound): 25.84%
